Data on one molecule can be found in patent EP0232423A1, “CIRCULATION IMPROVING AGENT” (GRELAN PHARMACEUTICAL CO., LTD., priority 1985, dated 1987).

In assay [1] the test system is ddY male mice. Nature of the assay: Ameliorative activity against damage of cerebral hypoxia (reduced pressure). Type of assay: in vivo. How it is done:
Thirty mg/kg each of compound (I) (lactate) and ifenprodil tartrate and 16 mg/kg of phentolamine, which is an a-adrenoceptor blocker, were intraperitoneally administered to ddY male mice, respectively. […] Time from start of reduction of pressure until stop of respiration in the mice was measured. The control group was drug-untreated.

The test system of assay [2] is platelets of rabbit. Nature of the assay: Fluidity of platelet membrane (fluorescence polarization). Type of assay: cell-based. More on the design: Fluorescence polarization: unit not given here. The note with it: for Fluorescence polarization: fluidity increases as value decreases. The source says: The activity of compound (I) (lactate) and ifenprodil tartrate against the fluidity of platelet membrane was examined according to a known method (Biochimica et Biophysica Acta, vol. 798, page 210, 1984) using platelets of rabbit and using n-butyl alcohol as a positive control.

Where a name gives a salt, the structure may show the parent alone.

With `CC(C(O)c1ccc(O)cc1)N1CCC(Cc2ccccc2)CC1` (stereo not drawn) [Ifenprodil tartrate], the “Time required for stoppage of respiration” value in assay [1] (30 mg/kg intraperitoneally, 30 minutes before, pressure reduced to 160 mmHg) came to 85.2 ± 4.1 s. The “effect on survival time (cerebral hypoxia)” value in assay [1] (i.p., 30 mg/kg compound (I) and ifenprodil tartrate, 16 mg/kg phentolamine) is “substantially no effect”. Further, the “effect on fluidity of platelet membrane” value in assay [2] is “no such activity”. Further, the Fluorescence polarization worked out at 7 in assay [2] (1 µM), 13±7 in assay [2] (10 µM) and 3±3 in assay [2] (100 µM).
